Values quoted from earlier work in US20050175599A1, “Process for producing substance” (Kyowa Hakko Kogyo Co., Ltd., priority 2001, published 2005).

Assays:
[1] = test system: HeLa cells; conditions: ubiquinone added to media; Protoplasma, 184, 214 (1995); cited from earlier work
[2] = test system: bovine embryo cells; conditions: ubiquinone added to media; Biol. Reprod., 61, 541 (1999); cited from earlier work
[3] = test system: murine fibroblast cells; conditions: ubiquinone added to media; Protoplasma, 184, 214 (1995); cited from earlier work

Measured: effect on cell growth

COC1=C(OC)C(=O)C(C/C=C(\C)CC/C=C(\C)CC/C=C(\C)CC/C=C(\C)CC/C=C(\C)CC/C=C(\C)CC/C=C(\C)CC/C=C(\C)CC/C=C(\C)CCC=C(C)C)=C(C)C1=O [ubiquinone, 2,3-dimethoxy-5-methyl-6-polyprenyl-1,4-benzoquinone]
promotes the growth: all assays above
